Data from US9586986B2, “Substituted 7-deazapurine ribonucleosides for therapeutic uses” (Institute of Organic Chemistry and Biochemistry ASCR, v.v.i., priority 2014, dated 2017).
Where two headings read alike, the source gives them in different places.

Tests used:
Format in all cases: cell-based
HCT116p53-/- = experiment: Cytostatic/cytotoxic MTT assay, HCT116p53-/-; settings: Homo sapiens, read-out: MTT, IC50 HCT116 p53-/-
Excerpt: (§1) Unless otherwise stated, all cells were purchased from the […] (ATCC). The CCRF-CEM line is derived from T lymphoblastic leukemia, evincing high chemosenzitivity, K562 represent cells from a […] patient sample with bcr-abl translocation, HCT116 is colorectal tumor cell line and its p53 gene knock-down counterpart (HCT116p53−/−, Horizon Discovery, UK) is a model of human cancers with p53 inactivation frequently associated with poor prognosis, A549 cell line is lung adenocarcinoma. The daunorubicin resistant subline of CCRF-CEM cells (CEM-DNR bulk) and paclitaxel resistant subline K562-TAX were selected in our laboratory by cultivation of maternal cell lines in increasing concentrations of daunorubicine or paclitaxel, respectively. The CEM-DNR cells overexpress mrp-1 and mdr-1 genes, while K562-TAX cells overexpress mdr-1 only. Both proteins belong to the family of ABC transporters and are involved in the primary and/or acquired multidrug resistance phenomenon (ref.: Gottesman, M. M.; Fojo, T.; Bates, S. E. Multidrug resistance in cancer: role of ATP-dependent transporters. Nat. Rev. Cancer. 2002, 2, 48-58. (b) Noskova, V.; Dzubak, P.; Kuzmina, G.; Ludkova, A.; Stehlik, D.; Trojanec, R.; Janostakova, A.; Korinkova, G.; Mihal, V.; Hajduch, M. In vitro chemoresistance profile and expression/function of MDR associated proteins in resistant cell lines derived from CCRF-CEM, K562, A549 and MDA MB 231 parental cells. Neoplasma 2002, 49, 418-425). Non-malignant MRC-5 and BJ cells, derived from normal human fibroblasts, were used as controls. The cells were maintained in Nunc/Corning 80 cm^2 plastic tissue culture flasks and cultured in cell culture medium (DMEM/RPMI 1640 with 5 g/L glucose, 2 mM glutamine, 100 U/mL penicillin, 100 µg/mL streptomycin, 10% fetal calf serum, and NaHCO3). Cell suspensions were prepared and diluted according to the particular cell type and the expected target cell density (25,000-30,000 cells/well based on cell growth characteristics). Cells were added by pipette (80 L) into 96-well microtiter plates. Inoculates were allowed a pre-incubation period of 24 h at 37° C. and 5% CO2 for stabilization. Four-fold dilutions, in 20-L aliquots, of the intended test concentration were added to the microtiter plate walls at time zero. All test compound concentrations were examined in duplicate. Incubation of the cells with the test compounds lasted for 72 h at 37° C., in a 5% CO2 atmosphere at 100% humidity. At the end of the incubation period, the cells were assayed using MTT. Aliquots (10 L) of the MTT stock solution (5 mg/ml) were pipetted into each well and incubated for another 1-4 h. After this incubation period the formazan produced was dissolved by addition of 100 µL/well of 10% aq SDS (pH 5.5), followed by a further incubation at 37° C. overnight. The optical density was measured at 540 nm. The IC50 value, the drug concentration inhibiting the cell growth by 50%, was calculated from appropriate dose-response curves.
(§2) In vitro cytotoxic/cytostatic activity final nucleosides 1-5 was initially evaluated against […] cell lines derived from human solid tumors including lung (A549 cells) and colon (HCT116 and HCT116p53−/−) carcinomas, as well as leukemia cell lines (CCRF-CEM, CEM-DNR, K562 and K562-TAX) and, for comparison, non-malignant BJ and MRC-5 fibroblasts. Concentrations inhibiting the cell growth by 50% (IC50) were determined using a quantitative metabolic staining with 3-(4,5-dimethylthiazol-2-yl)-2,5-diphenyltetrazolium bromide (MTT) (ref.: Denizot, F.; Lang, R. Rapid colorimetric assay for cell growth and survival: Modifications to the tetrazolium dye procedure giving improved sensitivity and reliability. J. Immunol. Meth. 1986, 89, 271-277) following a 3-day treatment.
Multidrug resistance is a major therapeutic problem in cancer chemotherapy. […]

K562 = experiment: Cytostatic/cytotoxic MTT assay, K562; settings: Homo sapiens, read-out: MTT, IC50 K562
Excerpt: as §1, §2

[1] = system: HCV subtype 2A replicon in Huh-7 cells; experiment: HCV sub-genomic reporter replicon assay, subtype 2A; settings: Hepatitis C virus
Procedure: (§3) Compounds were also tested in Huh-7 cells harboring sub-genomic reporter replicons derived from HCV subtypes 1B and 2A (ref.: Stuyver, L. J.; Whitaker, T.; McBrayer, T. R.; Hernandez-Santiago, B. I.; Lostia, S.; Tharnish, P. M.; Ramesh, M.; Chu, C. K.; Jordan, R.; Shi, J. X.; Rachakonda, S.; Watanabe, K. A.; Otto, M. J.; Schinazi, R. F. Antimicrob. Agents Chemother. 2003, 47, 244-254).

HeLa S3 = experiment: XTT cytotoxicity assay, HeLa S3; settings: Homo sapiens, read-out: XTT, IC50 HeLa S3
Procedure: (§4) HL-60, Hela S3 and HepG2 cell lines (ATCC) were grown in RPMI-1640 or DMEM medium supplemented with 10% fetal calf serum, […] of streptomycin, 200 U/mL of penicillin G and 4 mM glutamine in a humidified atmosphere containing 5% CO2 at 37° C. Sensitivity of these cell lines to the synthesized compounds was assessed with the use of XTT cell proliferation kit II (Roche Diagnostics GmbH, Mannheim, Germany) according to the manufacturer's instructions. Briefly, cells were seeded in a 96-well plate at a density of 10,000 cells per well (90 μL). After 24 h, 10 μL of the tested compounds were added to the culture media at desired concentration range and incubated for 72 h. After that 50 μL of the XTT solution was added (1 mg/mL XTT+0.383 mg/mL N-methyl dibenzopyrazine methyl sulfate). The absorbance was recorded at 495 nm following a 2 h-incubation with the dye. IC50 values were determined by non-linear regression method using GraphPad Prism version 5.00 for Windows (GraphPad Software, La Jolla, Calif., USA).
(§5) In addition, the anti-proliferative effect was tested against a human T-lymphoblastic leukemia line CCRF-CEM, promyelocytic leukemia HL-60 and cervical carcinoma HeLa S3 growing in liquid suspension. Cell viability was determined following a 3-day incubation using 2,3-bis-(2-methoxy-4-nitro-5-sulfophenyl)-2H-tetrazolium-5-carboxanilide (XTT) assay (ref.: Scudiero, D. A.; Shoemaker, R. H.; Paull, K. D.; Monks, A.; Tierney, S.; Nofziger, T. H.; Currens, M. J.; Seniff, D.; Boyd M. R. Evaluation of a Soluble Tetrazolium/Formazan Assay for Cell Growth and Drug Sensitivity in Culture Using Human and Other Tumor Cell Lines. Cancer Res. 1988, 48, 4827-4833).

HL60 = experiment: XTT cytotoxicity assay, HL-60; settings: Homo sapiens, read-out: XTT, IC50 HL60
Procedure: as §4, §5

[2] = system: HCV subtype 1B replicon in Huh-7 cells; experiment: HCV sub-genomic reporter replicon assay, subtype 1B; settings: Hepatitis C virus
Procedure: as §3

[3] = Huh-7 cells, HCV subtype 2A replicon, read-out: Replicon 2A EC50
[4] = Huh-7 cells, HCV subtype 1B replicon, read-out: Replicon 1B EC50

Compound | IC50 (HCT116p53-/-; HCT-116, 72 h incubation) | IC50 (K562; K562, 72 h incubation) | EC50 [1, 3] | IC50 (HeLa S3; HeLa S3, 72 h incubation) | IC50 (HL60; HL-60, 72 h incubation) | EC50 [2, 4] | IC50 (HCT116p53-/-; HCT-116, 72 h) | IC50 (K562; K562, 72 h) | EC50 ([1]; Huh-7, read-out: Replicon 2A EC50) | IC50 (HeLa S3; HeLa S3, 72 h) | IC50 (HL60; HL-60, 72 h) | EC50 ([2]; Huh-7, read-out: Replicon 1B EC50)
CNc1ncnc2c1c(-c1ccco1)cn2[C@@H]1O[C@H](CO)[C@@H](O)[C@H]1O [Compound 3a, 5-(Furan-2-yl)-4-methylamino-7-(β-D-ribofuranosyl)-7H-pyrrolo[2,3-d]pyrimidine] | 0.44 µM | 0.22 µM | 0.14 µM | 5 µM | 0.62 µM | 0.06 µM | – | – | – | – | – | –
C#Cc1cn([C@@H]2O[C@H](CO)[C@@H](O)[C@H]2O)c2ncnc(C)c12 [Compound 5g, 5-Ethynyl-4-methyl-7-(β-D-ribofuranosyl)-7H-pyrrolo[2,3-d]pyrimidine] | > 20 µM | 6.92 µM | 21.6 µM | 14.7 µM | 1.11 µM | 0.23 µM | – | – | – | – | – | –
CSc1ncnc2c1c(-c1ccoc1)cn2[C@@H]1O[C@H](CO)[C@@H](O)[C@H]1O [Compound 2b, 5-(Furan-3-yl)-4-methylsulfanyl-7-(β-D-ribofuranosyl)-7H-pyrrolo[2,3-d]pyrimidine] | 0.1 µM | 0.06 µM | > 44 µM | 5.39 µM | 0.36 µM | 4.72 µM | – | – | – | – | – | –
CN(C)c1ncnc2c1c(-c1cc3ccccc3o1)cn2[C@@H]1O[C@H](CO)[C@@H](O)[C@H]1O [Compound 4f, 5-(Benzofuran-2-yl)-4-dimethylamino-7-(β-D-ribofuranosyl)-7H-pyrrolo[2,3-d]pyrimidine] | > 20 µM | > 20 µM | > 44 µM | > 20 µM | > 20 µM | 19.2 µM | – | – | – | – | – | –
CN(C)c1ncnc2c1c(-c1ccoc1)cn2[C@@H]1O[C@H](CO)[C@@H](O)[C@H]1O [Compound 4b, 4-Dimethylamino-5-(furan-3-yl)-7-(β-D-ribofuranosyl)-7H-pyrrolo[2,3-d]pyrimidine] | > 20 µM | 1.54 µM | > 44 µM | 9.06 µM | 1.16 µM | 7.88 µM | – | – | – | – | – | –
COc1ncnc2c1c(-c1cc3ccccc3o1)cn2[C@@H]1O[C@H](CO)[C@@H](O)[C@H]1O [Compound 1f, 5-(Benzofuran-2-yl)-4-methoxy-7-(β-D-ribofuranosyl)-7H-pyrrolo[2,3-d]pyrimidine] | 14.5 µM | 20.9 µM | 10.2 µM | 9.24 µM | 4.47 µM | 2.64 µM | – | – | – | – | – | –
CN(C)c1ncnc2c1ccn2[C@@H]1O[C@H](CO)[C@@H](O)[C@H]1O [RC4, reference compound] | 5.09 µM | 5.28 µM | 0.97 µM | 10.6 µM | 0.87 µM | 0.27 µM | – | – | – | – | – | –
COc1ncnc2c1c(-c1ccsc1)cn2[C@@H]1O[C@H](CO)[C@@H](O)[C@H]1O [Compound 1d, 4-Methoxy-7-(β-D-ribofuranosyl)-5-(thiophen-3-yl)-7H-pyrrolo[2,3-d]pyrimidine] | 0.14 µM | 0.09 µM | > 44 µM | 3.35 µM | 0.13 µM | 0.55 µM | – | – | – | – | – | –
CNc1ncnc2c1ccn2[C@@H]1O[C@H](CO)[C@@H](O)[C@H]1O [RC3, reference compound] | > 20 µM | > 20 µM | > 44 µM | > 20 µM | 12.8 µM | 0.82 µM | – | – | – | – | – | –
C#Cc1cn([C@@H]2O[C@H](CO)[C@@H](O)[C@H]2O)c2ncnc(OC)c12 [Compound 1g, 5-Ethynyl-4-methoxy-7-(β-D-ribofuranosyl)-7H-pyrrolo[2,3-d]pyrimidine] | 5.14 µM | 0.3 µM | > 44 µM | 1.73 µM | 0.19 µM | 0.18 µM | – | – | – | – | – | –
CN(C)c1ncnc2c1c(-c1ccsc1)cn2[C@@H]1O[C@H](CO)[C@@H](O)[C@H]1O [Compound 4d, 4-Dimethylamino-7-(β-D-ribofuranosyl)-5-(thiophen-3-yl)-7H-pyrrolo[2,3-d]pyrimidine] | > 20 µM | 0.53 µM | > 44 µM | > 15 µM | 1.92 µM | 38.4 µM | – | – | – | – | – | –
COc1ncnc2c1ccn2[C@@H]1O[C@H](CO)[C@@H](O)[C@H]1O [RC1, reference compound] | > 20 µM | > 20 µM | > 44 µM | > 20 µM | > 20 µM | 43.2 µM | – | – | – | – | – | –
Cc1ncnc2c1ccn2[C@@H]1O[C@H](CO)[C@@H](O)[C@H]1O [RC5, 4-Methyl-7-(β-D-ribofuranosyl)-7H-pyrrolo[2,3-d]pyrimidine, reference compound] | – | – | – | – | – | – | 0.06 µM | 0.01 µM | 0.02 µM | 0.02 µM | 0.02 µM | 0.02 µM
CSc1ncnc2c1c(-c1ccco1)cn2[C@@H]1O[C@H](CO)[C@@H](O)[C@H]1O [Compound 2a, 5-(Furan-2-yl)-4-methylsulfanyl-7-(β-D-ribofuranosyl)-7H-pyrrolo[2,3-d]pyrimidine] | 0.01 µM | 0.04 µM | 0.05 µM | 0.54 µM | 0.12 µM | 0.07 µM | – | – | – | – | – | –
